# Measured values taken from patent publication US20040147459A1, “Method and composition for maintaining urinary tract health in the face of infections” (priority 2002, published 2004).
# Experiments:
# [1] = system: E. coli in the urinary tract; experiment: doctor-run trials of mannose dosages in urinary tract infections; format: in vivo; settings: 2 g three times a day for acute infections; maintenance 1 g one to two times per day
# From the text: Because it is difficult for many people to remember a medication that must be taken this often, it is herein disclosed to change this model, as disclosed in the table in FIG. 2. For acute infections, the method is to give a 2-gram (1 teaspoon) dose of mannose three times a day with meals. The maintenance dosage is one-half teaspoon (1 gram) one to two times per day. Children's dosages are half of the adult dosage. For women who experience UTIs after sexual relations, one teaspoon is used an hour prior to intimate relations and an additional one teaspoon immediately following. This regimen provides a quantity of mannose sufficient to remove a majority of E. coli in the urinary tract, while improving the ease of use and compliance.
# E. coli = settings: cited from earlier work
Compound,effectiveness of the dosages in doctor-run trials [1],"effectiveness in binding to E. coli and inhibiting its attachment, relative to fructose (E. coli; compared with fructose)",binding to E. coli (E. coli; fructose contained in cranberry juice)
O=C[C@@H](O)[C@@H](O)[C@H](O)[C@H](O)CO [D-mannose],effective,ten times more effectively,–
"O=C(CO)[C@@H](O)[C@H](O)[C@H](O)CO [fructose, reference compound]",–,–,can also bind to E. coli
